The source of these data is patent US20250120978A1, “JAK INHIBITOR WITH ERK1/2 AND/OR SHP2 INHIBITORS COMBINATION THERAPY” (Erasca, Inc., priority 2021, published 2025).

Structures are written as SMILES.

In test [1] the test system is Human JAK2V617F-positive UKE-1 cells. Put plainly: Apoptosis by Annexin V staining and flow cytometry in UKE-1 cells. Format: cell-based. The following applies: 72 hours, Annexin V staining; single drug. How it is done: The following experiment was designed to test whether the combination of Compound 2 and ruxolitinib induces apoptosis in UKE-1 cells harboring a JAK2V617F mutation. […] Cell apoptosis was determined by Annexin V staining and flow cytometry.
A general note: Flow cytometry measures light scatter and fluorescence of single cells or particles in a stream.

In test [2] the test system is JAK2V617F knock-in mouse models. Description: Splenomegaly in Jak2V617F knock-in mouse model of MPN. The class given is in vivo. To be noted: Compound 2 30 mg/kg/per day, compared with vehicle treatment. How it is done:
In animal models, JAK2V617F expression typically leads to the development of MPN-like disease which results in enlargement of spleen (splenomegaly), higher cell counts, and fibrotic evolution. JAK2V617F knock-in mouse models were used to investigate the effect of the combination of Compound 2 with ruxolitinib. Animals were dosed with either Compound 2, ruxolitinib, or the combination of Compound 2 with ruxolitinib. […] Data are shown in bar graphs as mean±SEM (n=4 for vehicle; n=7 for Compound 2 I; n=4 for ruxolitinib; n=7 for combo drug treatment) in FIG. 6B. (*p<0.05; **p<0.005).

For `COCOC[C@H]1C[C@H]2COc3c(Sc4cnc(N5CCC6(CC5)CO[C@@H](C)[C@H]6N)c(CO)n4)ccnc3N2C1` [Compound 2, (3-((3S,4S)-4-amino-3-methyl-2-oxa-8-azaspiro[4.5]decan-8-yl)-6-(((6aS,8S)-8-((methoxymethoxy)methyl)-6a,7,8,9-tetrahydro-6H-pyrido[3,2-b]pyrrolo[1,2-d][1,4]oxazin-4-yl)thio)pyrazin-2-yl)methanol], the cell apoptosis result in test [1] is recorded as “induced apoptosis”. Further, in test [2], the spleen size/weight entry is on record as “significantly reduced”.
